# Experimental data taken from PMC3157017 (Theranostics, 2011).
# Molecular target: integrin αvβ3 (Homo sapiens, UniProt P05106+P06756)
# Experiment: Whole-cell integrin αvβ3 competitive displacement assay against ^125I-c
# Assay type: binding
structure (smiles),measurement,value
"N=C(N)NCCC[C@@H]1NC(=O)[C@H](CCCCNC(=O)CCOCCOCCOCCOCCNC(=O)CN2CCN(CC(=O)O)CCN(CC(=O)O)CCN(CC(=O)O)CC2)NC(=O)[C@@H](Cc2ccccc2)NC(=O)[C@H](CC(=O)O)NC(=O)CNC1=O [DOTA-P-RGD, DOTA-PEG4-c(RGDfK)]",IC50,44.3 ± 3.5 nM
